Assay results as given in patent US6492428B1, “Compounds having MIF antagonist activity” (The Picower Institute for Medical Research, priority 2000, dated 2002).
“Also recorded” adds a separate entry of the source. Where two headings read alike, the source gives them in different places.

Legend:
human MIF [1] = biological target: T1, human MIF (Homo sapiens, UniProt P14174); test: MIF dopachrome tautomerase enzyme inhibition assay; format: biochemical; conditions: for MIF enzyme inhibition activity (in words): dopachrome tautomerase assay; for inhibition at 200 µM: read-out: % inhibition at 200 μM; for IC50: MIF 0.7 μg/ml treated 5 minutes, dopachrome methyl ester (1) substrate; for effect on MIF enzymatic activity at doses equimolar to MIF monomer: higher MIF concentrations (approximately 0.1 mg/ml and above)
T1 construct: made in house; host or cells: E. coli
T1 sequence (P14174 2-115 limits assumed): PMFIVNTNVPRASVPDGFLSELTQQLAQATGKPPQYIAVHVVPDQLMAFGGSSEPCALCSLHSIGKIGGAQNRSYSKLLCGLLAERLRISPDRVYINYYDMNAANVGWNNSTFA

recombinant mouse MIF = recombinant mouse MIF (Mus musculus, UniProt P34884); test: Tautomerase enzyme inactivation of murine MIF before the bioassay
human MIF [2] = biological target: T1, human MIF; test: Covalent enzyme modification (SDS-PAGE, MALDI MS, dialysis/gel filtration)
human MIF [3] = biological target: T1, human MIF; test: MIF tautomerase inhibition in the presence of fetal bovine serum; format: biochemical
L6 rat myoblasts = test: Fructose-2,6-bisphosphate (F2,6BP) induction assay; format: cell-based; conditions: for induction of F2,6BP production (in words): MIF conjugated with compound, 10 ng/ml; for F2,6BP production: murine MIF 10 ng/ml, untreated or pretreated (conjugated) with compound, control=100%
anti-MIF antibodies = test: Cross-reactivity with anti-MIF antibodies (ELISA); format: binding; conditions: for recognition by anti-MIF antibodies (in words): MIF incubated with NAPQI (4) versus unmodified MIF
Protocol: FIG. 7 illustrates the loss of immunological crossreactivity with anti-MIF antibodies following incubation of MIF with NAPQI (4).
(iii) Cross-reactivity with anti-MIF antibodies. […] Without being bound by mechanism, and in view of the lack of bioactivity of the MIF-NAPQI (4) conjugate in the above arachidonic acid release and F2,6BP induction assays, it is likely that NAPQI (4) conjugation induces distortion of the MIF peptide conformation. This distortion also renders the MIF-NAPQI (a) (4) conjugate non-crossreactive with anti-MIF Mab.
The presence of such structural changes was further explored by characterizing the binding of additional MIF-specific antibodies (Picower Institute clones XIV. 14.3, III.D.9 and XIV. 15.5, which differ in their epitope recognition and activity to inhibit biologically active MIF), using a standard ELISA technique. In a standardized sandwich ELISA specific for MIF Meinhardt et al., Endocrinology, 137:5090-5095, 1996), an equivalent amount of MIF-NAPQI (4) conjugate (as indicated by protein concentration) was recognized 7-fold less than purified recombinant MIF that had not been exposed to NAPQI (4) (FIG. 7). Again, without being bound by mechanism, this loss of cross-reactivity of MIF-NAPQI (4) was most likely due to remote structural changes in MIF induced by covalent attachment of NAPQI (4). These structural changes might, in turn, account for the lack of bioactivities of MIF-NAPQI (4) and MIF-N-acetyl-3-hydroxy-p-benzoquinone imine (6) conjugates in the F2,6BP induction assay, and for the lack of bioactivity of MIF-NAPQI (4) conjugate in the arachidonic acid release assay.

NIH/3T3 cells = test: MIF-induced arachidonic acid release; format: cell-based; conditions: cells labeled with 1 μM [14C]-arachidonic acid
Protocol: NIH/3T3 cells were labeled with 1 μM [^14C]-arachidonic acid. After overnight culture, the cells were washed extensively with PBS and then the appropriate samples of MIF or MIF-NAPQI (4) conjugate were added in duplicate. The release of arachidonic acid into the culture medium was then measured.
The effect of MIF-NAPQI (4) conjugate on arachidonic acid release was tested by adding equivalent amounts of either MIF or MIF-NAPQI (4) conjugate to NIH3/3T3 cell cultures that had been pre-equilibrated with radioactive arachidonate, followed by the measurement of arachidonic acid release by scintillation counting. Briefly, NIH/3T3 fibroblasts were labeled with 1 μM [^14C]-arachidonic acid. After overnight culture, the cells were washed extensively with PBS, and the appropriate samples of MIF or MIF-NAPQI (4) conjugate were added in duplicate. The release of arachidonic acid into medium was then measured as described previously (Mitchell et al., J. Biol. Chem., 274:18100-18106, 1999).

O=C(O)c1ccc(O)c(O)c1 [Compound 13]
MIF enzyme inhibition activity (in words) (human MIF [1]): little, if any | inhibition at 200 µM (human MIF [1]): 24%

iodoacetamide [Compound 17, reference compound]
% inhibition at 500 μM (human MIF [1]; 500 μM compound, MIF 0.7 μg/ml, 5 minutes): 0% inhibition at 500 μM | MIF enzyme inhibition activity (in words) (human MIF [1]): No inhibitory activity

CC(=O)Nc1ccc(O)c(O)c1 [Compound 5]
IC50 (human MIF [1]): 500 µM | MIF enzyme inhibition activity (in words) (human MIF [1]): little, if any

COc1cc(NC(C)=O)ccc1O [Compound 10]
MIF enzyme inhibition activity (in words) (human MIF [1]): little, if any | inhibition at 200 µM (human MIF [1]; 200 μM compound, MIF 0.7 μg/ml, 5 minutes): 0%

CC(=O)N=C1C=CC(=O)C(C)=C1 [Compound 7]
IC50 (human MIF [1]): 35 µM

CC(=O)N=C1C=CC(=O)C=C1 [Compound 4, N-Acetyl-p-benzoquinone imine]
inhibition of enzyme activity / enzyme inactivation (recombinant mouse MIF; mouse MIF pretreated with 167 μM compound): 96% | inhibition at 167 µM (recombinant mouse MIF; read-out: inhibition of enzyme activity / enzyme inactivation, mouse MIF pretreated with 167 μM compound): 98% | restoration of enzymatic activity by dialyzing or gel filtering inactivated MIF (human MIF [2]; MIF inactivated with compound, data not shown): not possible to restore enzymatic activity | chemical modification of MIF (in words) (human MIF [2]; SDS-PAGE and MALDI mass spectra of treated MIF): stable, covalent conjugates | fetal bovine serum concentration at which loss in inhibitory activity became detectable (human MIF [3]; MIF 0.72 μg/ml, compound 0.2 mM): 25% | inhibition of MIF in the presence of serum proteins (in words) (human MIF [3]; MIF 0.72 μg/ml, compound 0.2 mM, 20 minutes): occurred even in the presence of serum proteins | inhibition at 200 µM (human MIF [3]; read-out: residual inhibitory activity): 31% | inhibition of enzymatic activity (human MIF [1]): 69% | MIF enzyme inhibition activity (in words) (human MIF [1]): potent inhibitor | inhibition at 49.5 µM (human MIF [1]; read-out: enzyme inhibition): 37% | inhibition at 190 µM (human MIF [1]; read-out: enzyme inhibition): 94% | inhibition at 500 µM (human MIF [1]; read-out: enzyme inhibition): 100% | induction of F2,6BP production (in words) (L6 rat myoblasts): fail to induce | F2,6BP production (L6 rat myoblasts): 94 % of control

CC(=O)N=C1C=C(C)C(=O)C(C)=C1 [Compound 8]
IC50 (human MIF [1]): 120 µM

COC1=CC(=NC(C)=O)C=CC1=O [Compound 11]
IC50 (human MIF [1]): 25 µM

O=C(O)C1=CC(=O)C(=O)C=C1 [Compound 14]
IC50 (human MIF [1]): 4 µM

CC(=O)Nc1ccc(O)cc1 [Compound 3, acetaminophen, reference compound]
IC50 (human MIF [1]): 10000 µM

O=C(O)/C=C/C1=CC(=O)C(=O)C=C1 [Compound 16]
IC50 (human MIF [1]): 0.3 µM | MIF enzyme inhibition activity (in words) (human MIF [1]): sub-micromolar | effect on MIF enzymatic activity at doses equimolar to MIF monomer (human MIF [1]): virtually eliminated

CCN1C(=O)C=CC1=O [Compound 18, N-ethylmaleimide, reference compound]
MIF enzyme inhibition activity (in words) (human MIF [1]): No inhibitory activity | inhibition at 500 µM (human MIF [1]; read-out: % inhibition at 500 μM): 0%

CC(=O)N=C1C=CC(=O)C(O)=C1 [Compound 6, N-acetyl-3-hydroxy-p-benzoquinone imine]
IC50 (human MIF [1]): 0.7 µM | enzyme activity lost (human MIF [1]; MIF 2.8 μM (0.1 mg/ml, 8.4 μM monomer), compound at 7 μM (0.83 equivalents based on monomer)): 93% | enzyme activity lost (in words) (human MIF [1]; MIF 0.1 mg/ml, 1.7 equivalents/monomer): All | MIF enzyme inhibition activity (in words) (human MIF [1]): potent inhibitors; also recorded: sub-micromolar | effect on MIF enzymatic activity at doses equimolar to MIF monomer (human MIF [1]): virtually eliminated | more potent than dihydroquinone-like analog 5 (human MIF [1]; ratio of IC50 values versus compound 5): more than 715 fold | induction of F2,6BP production (in words) (L6 rat myoblasts): fail to induce | F2,6BP production (L6 rat myoblasts): 105 % of control

O=C(O)/C=C/c1ccc(O)c(O)c1 [Compound 15]
MIF enzyme inhibition activity (in words) (human MIF [1]): little, if any

CC(=O)N=C1C(C)=CC(=O)C=C1C [Compound 9]
IC50 (human MIF [1]): 200 µM

B1: MIF-NAPQI (4) conjugate: stable covalent conjugate formed when MIF is treated with NAPQI (4) (conjugate, UniProt P14174 2-115, looked up)
Macrophage migration …: PMFIVNTNVPRASVPDGFLSELTQQLAQATGKPPQYIAVHVVPDQLMAFGGSSEPCALCSLHSIGKIGGAQNRSYSKLLCGLLAERLRISPDRVYINYYDMNAANVGWNNSTFA
modifications: covalent NAPQI adduct
recognition by anti-MIF antibodies (in words) (anti-MIF antibodies): fail to recognize | recognition by anti-MIF antibodies (in words) (anti-MIF antibodies; listed as MIF-NAPQI conjugate): significantly less | recognition in sandwich ELISA, less than unmodified recombinant MIF (anti-MIF antibodies; equivalent amount by protein concentration, standardized sandwich ELISA specific for MIF): 7 fold | induction of F2,6BP production (in words) (L6 rat myoblasts): failed to induce | induction of arachidonic acid release (in words) (NIH/3T3 cells): did not induce; also recorded: does not induce | arachidonic acid released into culture supernatant relative to cultures treated with MIF (NIH/3T3 cells; equivalent amounts of MIF or conjugate): less than 1/10
